Data set [1] has as its system subcutaneous chondrosarcoma tumors. The experiment in a line: Chondrosarcoma tumor growth delay after PDT. Particulars: rats; drug dose 2.0 μmol/kg; light dose 125 J/cm2; optimal conditions, 24 hrs post drug administration. It counts as in vivo, Sprague-Dawley rats. As for the experimental part:
The carbamate compounds were formulated in egg yolk phosphatidyl choline (EYP) and phosphate buffered saline (PBS) (pH 7.4). These were sterilized by filtration through a 0.2-micron nylon filter and determined to be stable for at least several weeks following formulation by HPLC. Five Sprague-Dawley rats with subcutaneous chondrosarcoma tumors in the flank of a certain volume (150-250 mm^3) were injected intravenously with various drugs at various doses. Three hours after the injection the tumors were exposed to 664-nm light at light doses of 125 J/cm^2 or 200 J/cm^2. The end point of the study was the observation of tumor regrowth (averaged over the animals) following the treatment.
Table 2 illustrates the results for the best drug and light doses that were tested in the above system and are compared with the well known photosensitizer SnET2 under optimal conditions (24 hrs post drug administration).

Data set [2] has as its system normal skin. Kind of data set: Normal skin clearance (skin response) of photosensitizers in irradiated hairless rats. It counts as in vivo. Conditions: drug dose 0.5 μmol/Kg, light dose 150 mW/cm^2/125 J at activation wavelength, time point post injection. The text has this:
Ester and amide cleavage appear to be the major metabolic routes. As stated previously, one of the inventors' surprising and unexpected biological observations was that the carbamate analogs produce limited skin phototoxicity. Table 1 outlines the normal skin clearance of several carbamate photosensitizers as determined by irradiating hairless rats at the activation wavelength of the photosensitizer at 150 mW/cm2/125 J at different time points post injection. As can be clearly seen, carbamate analogs elicit skin responses at very early time points (1-6 hrs) and not past 6 hrs. […] Examples in Table (1) include compounds (26) and (Chl) and (37) and (35). In these cases the hydroxylated parent tetrapyrroles (Chl) and (35), at drug doses of 0.5 μmol/Kg, elicit maximal normal skin responses at 24 and 48 hrs, respectively. By comparison, their carbamate analogs (26) and (37), at drug doses of 1.0 μmol/Kg and 1.5 μmol/Kg, respectively, elicit maximal skin responses at 6 hrs only. Clearly, if ester metabolism of the carbamate back to the parent hydroxylated macrocycle was rapid in blood plasma one would expect skin responses similar to parent hydroxylated macrocycle. This is not the case. It is known by the present inventors and others that metabolism of the propionic acid methyl ester functionality is generally slow in rat and human blood plasma (10-20% metabolism at 24 hrs).

For the compound `CCOC(=O)C1=Cc2c3nc(cc4nc(cc5[n-]c(cc6[n-]c2c(C)c6CC)c(C)c5CC)C(C)=C4CC)[C@@H](C)[C@]13CC.[Cl-].[Cl-].[Sn]` (racemic) [SnET2, Tin Ethyletiopurpurin], the “Days (regrowth)” value in data set [1] turned out to be 13 days. Regarding “diethanolsulfonylamide zinc octaethylbenzochlorin [(35)]”, the “Skin Response” value in data set [2] stood at 48 h.

Source of the values: patent publication US20040266748A1, “Photosensitizing carbamate derivatives” (priority 2001, published 2004).
